Values of other authors as cited in patent publication US9855260B2, “Quinolinone derivatives” (GlaxoSmithKline LLC, priority 2011, dated 2018).

System: ob/ob and db/db mice
Details: 8 day administration

For `NC(=O)c1ncn([C@@H]2O[C@H](CO)[C@@H](O)[C@H]2O)c1N` [AICAR, 5-aminoimidazole-4-carboxamide-1(beta)-D-ribofuranoside], the reduces blood glucose is given as 35%.
